Consider 36 compounds from patent US11779015B2, “Pesticide compositions” (FUNDACIÓ CENTRE DE REGULACIÓ GENÒMICA, priority 2017, dated 2023).

One data set deals with D. suzukii. Description: Airborne toxicity petri dish assay, adult flies exposed to VOC vapours (FIG. 1A). The data set is classed as in vivo, Drosophila suzukii. The settings on record: for time to 100% dead flies: monitored over 1 hour. How it is done: A selection of compounds according to the invention were tested for airborne toxicity to D. suzukii by exposing a population of adult D. suzukii flies to the vapours of the compound using an experimental set up as shown on FIG. 1A.
In particular, adult flies 2 were exposed to compositions 4 comprising one or more of a selection of VOCs according to the invention or a comparative example, in a petri dish 6. The compositions 4 were loaded onto the lid 6a of the petri dish 6 and the flies were placed into the base 6b of the dish, which was then covered by a sheet of plastic mesh netting 8 to avoid direct contact of the flies 2 with the compositions 4, before replacing the lid 6a.
[…] Four drops of 50 microlitres were dispensed into reinforcement rings (not shown) fixed on the inner surface of the petri dish lid 6a.
The experimental set up used was as described in relation to FIG. 1A.
The data is shown as averages±SEM based on 3 to 6 trials for each condition.

Data set [1] concerns honeybees (Apis mellifera). The experiment in a line: Airborne toxicity on honeybees in the petri dish assay. The data set is classed as in vivo. The note with it: paraffin oil, 24 hours.
Another data set has as its system adult D. suzukii flies. Description: Petri dish assay, dose-range 0.3 to 10% vol in paraffin oil, 24 h exposure (FIG. 3E). The data set is classed as in vivo, Drosophila suzukii. The note with it: for Minimal concentration (%) to induce 100% morbidity/mortality in D. suzukii adults: paraffin oil, 24 h exposure (Example 2); for concentration at which toxicity is displayed (as low as): dose-range 0.3 to 10% vol in paraffin oil, 24 h exposure, adult D. suzukii. From the text: Data are represented as mean proportion of dead flies, with counts separated between male (as indicated by ‘M’) and female (as indicated by ‘F’) flies. […] Data points marked NaN were not tested at the indicated concentration. The MEC column summarises the minimal effective concentration to induce 100% morbidity/mortality to adult D. suzukii flies.

The mark [2] stands for this setting: VOC at 10 M in paraffin oil, vapour exposure, 1 hour.
Setting [3] is: VOC at 10 M in paraffin oil, vapour exposure.

Molecules are shown by their SMILES. Entries after “also recorded” stand apart in the source; their conditions may differ.

With `CC1=C(O)C(=O)OC1C` (centres unmarked) [4,5-Dimethyl-3-hydroxy-2,5-dihydrofuran-2-one, reference compound], the “airborne toxicity/lethality in the initial screen with a high dose (words)” value (shortened to “airborne toxicity/lethality”) in the data set with D. suzukii (setting [2]) was “showed toxicity”.
Same read-out and setting: then `COC(=O)C1CCCCC1` [methyl cyclohexanoate], with “showed toxicity”.
On to `CCOC(=O)Cc1ccccc1` [ethyl phenyl acetate, Ethyl phenylacetate], for which the “airborne toxicity/lethality” value in the data set with D. suzukii (setting [2]) is “showed toxicity”. Also, in the data set with D. suzukii (setting [3]), the “time to 100% dead flies” value is given as “half an hour”.
As to `CCC(C)C(=O)OC` (centres unmarked) [methyl 2-methylbutyrate, Methyl 2-methyl butyrate], the “airborne toxicity/lethality” value in the data set on D. suzukii (setting [2]) is reported as “showed toxicity”.
Regarding `CC=CC(=O)CC` [4-hexen-3-one], the “Percentage of dead honey bee adults (%)” value in data set [1] (applied concentration 3%) is given as 0%. For the same compound, the “airborne toxicity/lethality” value in the data set with D. suzukii (setting [2]) was “showed toxicity”. Besides, the “Minimal concentration (%) to induce 100% morbidity/mortality in D. suzukii adults” value in the data set on adult D. suzukii flies worked out at 3%.
Take `CCCC/C=C/C=C/C=O` [(E,E)-2,4-nonadienal]: the “Percentage of dead honey bee adults (%)” value in data set [1] (applied concentration 2%) and in data set [1] (applied concentration 5%) was 0% in each case. The “airborne toxicity/lethality” value in the data set on D. suzukii (setting [2]) is listed as “showed toxicity”. Besides, in the data set on adult D. suzukii flies, the “concentration at which toxicity is displayed (as low as)” value (shortened to “concentration … (as low as)”) came to 2%. The “Minimal concentration (%) to induce 100% morbidity/mortality in D. suzukii adults” value in the data set on adult D. suzukii flies is 2%.
Consider `CC(=O)c1ccccc1` [acetophenone, Acetophenone], for which, in the data set with D. suzukii (setting [2]), the “airborne toxicity/lethality” value is “showed toxicity”.
In the case of `CCOC(=O)c1ccccc1` [ethyl benzoate, Ethyl benzoate], the “airborne toxicity/lethality” value in the data set with D. suzukii (setting [2]) was “showed toxicity”.
As for `O=Cc1ccccc1` [benzaldehyde, Benzaldehyde], in the data set with D. suzukii (setting [2]), the “airborne toxicity/lethality” value is “showed toxicity”.
The same measure, in the same setting: then `CC(C)OC(=O)C1CCCC1` [isopropyl cyclopentanecarboxylate, Isopropyl cyclopentanecarboxylate], with “showed toxicity”.
As to `C=CCOC(=O)C1=CCCC1` [allyl 1-cyclopentene-1-carboxylate, Allyl 1-cyclopentene-1-carboxylate], the “Percentage of dead honey bee adults (%)” value in data set [1] (applied concentration 1%) was determined as 0%. Also, the “airborne toxicity/lethality” value with D. suzukii (setting [2]) was “showed toxicity”. Moreover, in the data set with adult D. suzukii flies, the “concentration … (as low as)” value is 0.3% and the “Minimal concentration (%) to induce 100% morbidity/mortality in D. suzukii adults” value is 0.5%.
On to `CCC=C(C)C=O` [2-methyl-2-pentenal], for which the “airborne toxicity/lethality” value in the data set on D. suzukii (setting [2]) is recorded as “showed toxicity”.
In the case of `CCCCCCCCCC/C=C/C=O` [E-2-tridecenal], the “airborne toxicity/lethality” value in the data set with D. suzukii (setting [2]) is given as “showed toxicity”. The “time to 100% dead flies” value in the data set on D. suzukii (setting [3]) is reported as “an hour”.
Regarding `CCCCCCC=O` [heptanal, Heptanal], the “airborne toxicity/lethality” value in the data set on D. suzukii (setting [2]) is “showed toxicity”.
With `CCCCCCC/C=C/C=O` [E-2-decenal], the “Percentage of dead honey bee adults (%)” value in data set [1] (applied concentration 2%) is on record as 0%.
For `C=CC(C)(CCC=C(C)C)OC(=O)c1ccccc1` (centres unmarked) [linalyl benzoate, Linalyl benzoate, reference compound], the “airborne toxicity/lethality” value in the data set with D. suzukii (setting [2]) is given as “did not cause mortality; also recorded: not toxic”.
In the case of `CCCCC/C=C/C=O` [E-2-octenal], the “airborne toxicity/lethality” value with D. suzukii (setting [2]) is “showed toxicity”. Besides, in the data set on adult D. suzukii flies, the “concentration … (as low as)” value amounted to 2%.
On to `CCCCCC(C)=O` [2-heptanone], for which the “airborne toxicity/lethality” value in the data set with D. suzukii (setting [2]) is “showed toxicity”.
`CCCCCCCCC=O` [nonanal, Nonanal]: the “Percentage of dead honey bee adults (%)” value in data set [1] (applied concentration 3%) is given as 0%. Also, the “airborne toxicity/lethality” value with D. suzukii (setting [2]) was “showed toxicity”. The “Minimal concentration (%) to induce 100% morbidity/mortality in D. suzukii adults” value in the data set on adult D. suzukii flies is given as 3%.
As for `CCCCCCCC/C=C/C=O` [E-2-undecenal], in the data set on D. suzukii (setting [2]), the “airborne toxicity/lethality” value is listed as “showed toxicity”.
Still for that read-out and setting: the same measure for `CCCOC(=O)c1ccccc1` [propyl benzoate, Propyl benzoate]: “showed toxicity”; for `CC/C=C/C=O` [(E)-2-pentenal]: “showed toxicity”.
On the same count and under the same terms, then `CCCCCCO` [1-hexanol], with “showed toxicity”; and `CCCCCCCCC/C=C/C=O` [E-2-dodecenal], with “showed toxicity”.
For the compound `CC/C=C\CC/C=C/C=O` [(E)-2,(Z)-6-nonadienal, trans-2,cis-6-Nonadienal], the “Percentage of dead honey bee adults (%)” value in data set [1] (applied concentration 3%) came out at 10%. Moreover, the “airborne toxicity/lethality” value with D. suzukii (setting [2]) is “showed toxicity”. In addition, in the data set with adult D. suzukii flies, the “Minimal concentration (%) to induce 100% morbidity/mortality in D. suzukii adults” value was determined as 3%.
For `CCCCCOC(=O)c1ccccc1` [pentyl benzoate, Pentyl benzoate], the “airborne toxicity/lethality” value in the data set on D. suzukii (setting [2]) was “showed toxicity”. Also, in the data set with D. suzukii (setting [3]), the “time to 100% dead flies” value is recorded as “an hour”.
`COC(=O)c1ccccc1O` [methyl salicylate]: the “airborne toxicity/lethality” value in the data set with D. suzukii (setting [2]) is on record as “showed toxicity”.
Take `CC/C=C/CCO` [E-3-hexenol]: in the data set with D. suzukii (in vivo), the “airborne toxicity/lethality” value is recorded as “showed toxicity”.
Consider `COC(=O)C1CCCC1` [methyl cyclopentanecarboxylate, Methyl cyclopentanecarboxylate], for which the “airborne toxicity/lethality” value in the data set on D. suzukii (setting [2]) was “showed toxicity”.
As to `O=C(OCc1ccccc1)c1ccccc1` [benzyl benzoate, Benzyl benzoate, reference compound], the “airborne toxicity/lethality” value in the data set on D. suzukii (setting [2]) was “did not cause mortality”; with D. suzukii (VOC at 10 M in paraffin oil, vapour exposure, 1 hour, listed as Benzyl benzoate) it was “not toxic”.
In the case of `CCCC/C=C/C=O` [(E)-2-heptenal], the “Percentage of dead honey bee adults (%)” value in data set [1] (applied concentration 3%) is recorded as 0%. Besides, in the data set on D. suzukii (setting [2]), the “airborne toxicity/lethality” value is reported as “showed toxicity”. In the data set with adult D. suzukii flies, the “Minimal concentration (%) to induce 100% morbidity/mortality in D. suzukii adults” value came out at 3%.
Consider `O=C(OCc1ccccc1)c1ccccc1O` [benzyl salicylate, Benzyl salicylate, reference compound], for which the “airborne toxicity/lethality” value in the data set on D. suzukii (setting [2]) is “did not cause mortality; also recorded: not toxic”.
Regarding `CCCCOC(=O)C1CCCC1` [butyl cyclopentanecarboxylate, Butyl cyclopentanecarboxylate], the “Percentage of dead honey bee adults (%)” value in data set [1] (applied concentration 3%) stood at 0%. Also, the “airborne toxicity/lethality” value in the data set on D. suzukii (setting [2]) is “showed toxicity”. Also, the “Minimal concentration (%) to induce 100% morbidity/mortality in D. suzukii adults” value with adult D. suzukii flies was 3%.
As for `CCCCCCCC=O` [octanal, Octanal], the “airborne toxicity/lethality” value in the data set on D. suzukii (setting [2]) is on record as “showed toxicity”.
In the case of `CCCCCC/C=C/C=O` [E-2-nonenal], the “airborne toxicity/lethality” value with D. suzukii (setting [2]) was “showed toxicity”. Moreover, the “concentration … (as low as)” value in the data set on adult D. suzukii flies is recorded as 2%.
On to `CCCCC=O` [pentanal, Pentanal], for which, in the data set with D. suzukii (setting [2]), the “airborne toxicity/lethality” value is reported as “showed toxicity”.
